According to patent US20240245057A1, “INSECTICIDAL COMPOSITION FOR AGRICULTURAL OR HORTICULTURAL USE AND METHOD OF CONTROLLING AGRICULTURAL OR HORTICULTURAL PEST” (SDS BIOTECH K.K, priority 2021, published 2024):
Structures can show the parent of a compound that is named as a salt. Where two headings read alike, the source gives them in different places.

Key:
Assay type in all cases: in vivo
[1] = system: 3rd instar larvae of Spodoptera litura; assay: Test of efficacy against 3rd instar larvae of Spodoptera litura (dried Bt cultures mixed into artificial feed); settings: for Measured insecticidal rate (%): agent alone, 2 μg/g Feed, 25° C., 5 days; for insecticidal efficacy against the 3rd instar larvae of Spodoptera litura (in words): alone, application concentration of 2 μg/g feed
Procedure: A suspension of dried Btk culture or dried Bta culture was prepared by adding distilled water to the dried Btk culture or dried Bta culture prepared in Preparation Example 1. This suspension was admixed with prumycin hydrochloride prepared in Production Example 1 or kanosamine hydrochloride (Sigma-Aldrich Japan, LLC) at the prescribed concentration to prepare a solution. The obtained solution was admixed with artificial feed (Insecta LFS (manufactured by Nosan Corporation)) as shown in Tables 1 to 6 so that the content of the dried Btk culture or Bta culture was 0.2 to 2 mg/g of the artificial feed and the content of prumycin hydrochloride or kanosamine hydrochloride was 2 μg/g of the artificial feed. The artificial feed containing the dried Btk culture or dried Bta culture mixed with prumycin hydrochloride or kanosamine hydrochloride was placed on a petri dish (90 mm in diameter and 15 mm in height), and ten 3rd instar larvae of Spodoptera litura reared in a rearing room at 25° C. were released into the petri dish (triplicate). Each petri dish was closed and kept at 25° C. for 5 days.
The number of dead insects was then macroscopically counted by observing the inside of the petri dish, and the (measured) insecticidal rate (%) of the number of dead insects to the total number of reared insects was determined.
In addition, the suspension of dried Btk culture alone, the suspension of dried Bta alone, prumycin hydrochloride alone, kanosamine hydrochloride alone, or a combination of prumycin hydrochloride and kanosamine hydrochloride was added to the artificial feed to achieve the application concentration per g of the artificial feed as shown in Tables 1 to 6. Except the above, ten 3rd instar larvae of Spodoptera litura were released into a petri dish (triplicate) and kept at 25° ° C. for 5 days, as in the above Example.
The inside of the petri dish was then observed and the (measured) insecticidal rate (%) was determined in the same way as in the above Example.
The expected theoretical insecticidal rate (%) when treated with the dried Btk culture or dried Bta culture mixed with prumycin hydrochloride or kanosamine hydrochloride was determined by Colby's calculation formula ([…]). […]
The presence or absence of synergistic effect was determined by comparing the theoretical and measured insecticidal rates (%) in the case of using the dried Btk culture or dried Bta culture in combination with prumycin hydrochloride or kanosamine hydrochloride.
Specifically, the case where the measured value was larger than the theoretical value was judged as “having a synergistic effect”, and the case where the measured value was equal to or smaller than the theoretical value was judged as “having no synergetic effect” with respect to the insecticidal rate (%).

[2] = system: 3rd instar larvae of Helicoverpa armigera; settings: for insecticidal efficacy against the 3rd instar larvae of Helicoverpa armigera (in words): hydrochloride alone; for Number of dead insects/Number of test insects: 4 days
Source text: Each insecticidal protein solution obtained was admixed with prumycin hydrochloride prepared in Production Example 1 or kanosamine hydrochloride (Sigma-Aldrich Japan, LLC.) at a prescribed concentration to prepare a solution containing the insecticidal protein and prumycin hydrochloride or kanosamine hydrochloride. The obtained solution was admixed with artificial feed (Insecta LFS (manufactured by Nosan Corporation)) as shown in Tables 10 to 13 so that the content of each insecticidal protein was 0.063 to 8 μg/g of the artificial feed and the content of prumycin hydrochloride or kanosamine hydrochloride was 10 μg/g of the artificial feed. In this way, each artificial feed containing the insecticidal protein and prumycin hydrochloride or kanosamine hydrochloride was prepared. In addition, the above-described insecticidal protein solution, prumycin hydrochloride, or kanosamine hydrochloride alone was admixed with the artificial feed as shown in Tables 10 to 13 so that the content of each insecticidal protein was 0.063 to 8 μg/g of the artificial feed or the content of prumycin hydrochloride or kanosamine hydrochloride was […] of the artificial feed, respectively. In this way, each artificial feed containing the insecticidal protein, prumycin hydrochloride, or kanosamine hydrochloride alone was prepared. Each artificial feed containing or free of each substance thus obtained was placed on a petri dish (35 mm in diameter and 10 mm in height), and one 3rd instar larva of Helicoverpa armigera reared in a rearing room at 25° C. was released into each petri dish (10 replicates). Each petri dish was closed and kept at 25° ° C. for 4 days.
The number of dead insects was then macroscopically examined by observing the inside of each petri dish, and the LC50 value was calculated by the probit method. Next, based on the following equation, the ratio of the test plot without prumycin hydrochloride or kanosamine hydrochloride to the test plot with prumycin hydrochloride or kanosamine hydrochloride was calculated to determine the increase in insecticidal activity when prumycin hydrochloride or kanosamine hydrochloride was added.

[3] = system: 3rd instar larvae of Spodoptera litura; settings: for insecticidal efficacy against the 3rd instar larvae of Spodoptera litura (in words): hydrochloride alone; for Number of dead insects/Number of test insects: hydrochloride alone 10 μg/g Feed, insecticidal protein Absent, 5 days
Procedure: Each artificial feed containing or free of each substance thus obtained was placed on a petri dish (90 mm in diameter and 15 mm in height), and ten 3rd instar larva of Spodoptera litura reared in a rearing room at 25° C. were released into each petri dish (3 replicates). Each petri dish was closed and kept at 25° C. for 5 days.
After that, the number of dead insects was macroscopically counted by observing the inside of the petri dish. The LC50 values were calculated by the probit method, and the increase in insecticidal activity due to the addition of prumycin or kanosamine was calculated based on the same formula as in Test Example 4 above.

[4] = hydrochloride alone 10 μg/g Feed, insecticidal protein Absent

Molecule	Measured insecticidal rate (%) [1] [%]	insecticidal efficacy against the 3rd instar larvae of Spodoptera litura (in words) [1]	insecticidal efficacy against the 3rd instar larvae of Helicoverpa armigera (in words) [2]	Number of dead insects/Number of test insects [2, 4]	insecticidal efficacy against the 3rd instar larvae of Spodoptera litura (in words) [3]	Number of dead insects/Number of test insects [3]	Number of dead insects/Number of test insects ([2]; insecticidal protein alone 0.063 μg/g Feed)	Number of dead insects/Number of test insects ([2]; insecticidal protein alone 0.125 μg/g Feed)	Number of dead insects/Number of test insects ([2]; insecticidal protein alone 0.25 μg/g Feed)	Number of dead insects/Number of test insects ([2]; insecticidal protein alone 0.5 μg/g Feed)	Number of dead insects/Number of test insects ([2]; insecticidal protein alone 1 μg/g Feed)	Number of dead insects/Number of test insects ([2]; insecticidal protein alone 2 μg/g Feed)
CC(N)C(=O)NC1COC(O)C(N)C1O [Prumycin hydrochloride, 4-N-D-alanyl-2,4-diamino-2,4-dideoxyarabinose]	0.0	no insecticidal efficacy	no insecticidal efficacy	0/10	no insecticidal efficacy	0/10						
N[C@H]1[C@H](O)[C@@H](CO)OC(O)[C@@H]1O (stereo partly drawn) [Kanosamine hydrochloride, 3-amino-3-deoxy-D-glucopyranose]	0.0	no insecticidal efficacy	no insecticidal efficacy	0/10	no insecticidal efficacy	0/10						
Cry1A(c): Bacillus thuringiensis insecticidal protein expressed and purified in E. coli							0/10	0/10	0/10	1/10	6/10	7/10
